In US12685735B2 (Foghorn Therapeutics Inc., priority 2020, dated 2026):

Legend:
BRM = BRM (Homo sapiens, UniProt P51531); experiment: ATPase catalytic activity assay of BRM (ADP-Glo); type: biochemical; settings: for IC50: read-out: BRM IC50 (μM)*
Outline: (§1)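 Once the enzyme reaction finished, residual ATP is removed with ADP-Glo Reagent over 40 minutes at room temperature. Kinase Detection Reagent then converts product ADP into ATP during a 60-minute room-temperature incubation, and the luciferase signal is read.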

BRG-1 = BRG-1 (Homo sapiens, UniProt P51532); experiment: ATPase catalytic activity assay of BRG-1 (ADP-Glo); type: biochemical; settings: ATPase catalytic activity, ADP-Glo; for IC50: read-out: BRG1 IC50 (μM)*; for Emax: read-out: BRG1 Max % Inhibition
BRG-1, sequence (P51532 whole entry): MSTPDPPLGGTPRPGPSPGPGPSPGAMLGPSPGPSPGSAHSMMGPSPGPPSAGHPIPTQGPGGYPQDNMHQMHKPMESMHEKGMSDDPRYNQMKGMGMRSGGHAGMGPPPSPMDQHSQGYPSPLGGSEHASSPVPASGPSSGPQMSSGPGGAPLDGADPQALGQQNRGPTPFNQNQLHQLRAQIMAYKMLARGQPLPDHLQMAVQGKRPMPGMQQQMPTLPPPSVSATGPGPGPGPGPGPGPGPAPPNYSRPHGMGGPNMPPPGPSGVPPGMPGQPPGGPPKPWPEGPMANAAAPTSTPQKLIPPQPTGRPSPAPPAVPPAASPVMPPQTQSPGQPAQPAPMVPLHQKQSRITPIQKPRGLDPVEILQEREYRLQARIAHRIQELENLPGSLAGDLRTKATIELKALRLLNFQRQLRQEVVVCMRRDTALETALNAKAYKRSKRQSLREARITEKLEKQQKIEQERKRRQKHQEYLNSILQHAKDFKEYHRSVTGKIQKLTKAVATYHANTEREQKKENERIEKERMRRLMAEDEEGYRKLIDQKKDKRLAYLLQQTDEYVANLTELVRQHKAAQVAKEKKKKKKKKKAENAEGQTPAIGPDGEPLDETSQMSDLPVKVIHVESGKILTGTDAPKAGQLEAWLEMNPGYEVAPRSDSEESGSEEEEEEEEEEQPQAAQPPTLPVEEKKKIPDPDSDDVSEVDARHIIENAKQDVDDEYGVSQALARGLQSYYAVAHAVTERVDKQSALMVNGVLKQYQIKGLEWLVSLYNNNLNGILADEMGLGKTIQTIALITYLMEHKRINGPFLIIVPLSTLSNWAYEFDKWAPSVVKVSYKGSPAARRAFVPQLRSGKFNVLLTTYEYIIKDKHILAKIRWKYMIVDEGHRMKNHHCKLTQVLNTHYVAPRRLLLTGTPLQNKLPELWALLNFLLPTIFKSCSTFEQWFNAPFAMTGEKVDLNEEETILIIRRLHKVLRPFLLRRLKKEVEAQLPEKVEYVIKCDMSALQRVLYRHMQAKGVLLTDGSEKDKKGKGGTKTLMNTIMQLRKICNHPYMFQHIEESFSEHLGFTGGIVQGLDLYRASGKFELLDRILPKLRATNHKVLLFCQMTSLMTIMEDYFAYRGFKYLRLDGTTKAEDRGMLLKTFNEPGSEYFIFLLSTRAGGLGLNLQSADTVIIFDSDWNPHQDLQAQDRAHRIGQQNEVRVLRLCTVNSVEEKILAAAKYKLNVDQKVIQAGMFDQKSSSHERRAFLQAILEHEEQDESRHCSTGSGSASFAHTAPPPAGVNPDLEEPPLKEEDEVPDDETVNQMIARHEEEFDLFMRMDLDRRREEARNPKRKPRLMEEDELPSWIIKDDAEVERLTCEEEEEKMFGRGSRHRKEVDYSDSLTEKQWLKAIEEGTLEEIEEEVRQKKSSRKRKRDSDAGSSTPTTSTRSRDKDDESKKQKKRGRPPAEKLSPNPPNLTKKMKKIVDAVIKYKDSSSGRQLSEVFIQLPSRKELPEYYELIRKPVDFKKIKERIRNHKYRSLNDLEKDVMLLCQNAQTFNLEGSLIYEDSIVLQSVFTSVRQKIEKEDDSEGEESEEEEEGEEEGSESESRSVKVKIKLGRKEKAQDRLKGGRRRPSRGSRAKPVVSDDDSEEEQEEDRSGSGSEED
Outline: as §1

BRM, sequence (P51531 whole entry): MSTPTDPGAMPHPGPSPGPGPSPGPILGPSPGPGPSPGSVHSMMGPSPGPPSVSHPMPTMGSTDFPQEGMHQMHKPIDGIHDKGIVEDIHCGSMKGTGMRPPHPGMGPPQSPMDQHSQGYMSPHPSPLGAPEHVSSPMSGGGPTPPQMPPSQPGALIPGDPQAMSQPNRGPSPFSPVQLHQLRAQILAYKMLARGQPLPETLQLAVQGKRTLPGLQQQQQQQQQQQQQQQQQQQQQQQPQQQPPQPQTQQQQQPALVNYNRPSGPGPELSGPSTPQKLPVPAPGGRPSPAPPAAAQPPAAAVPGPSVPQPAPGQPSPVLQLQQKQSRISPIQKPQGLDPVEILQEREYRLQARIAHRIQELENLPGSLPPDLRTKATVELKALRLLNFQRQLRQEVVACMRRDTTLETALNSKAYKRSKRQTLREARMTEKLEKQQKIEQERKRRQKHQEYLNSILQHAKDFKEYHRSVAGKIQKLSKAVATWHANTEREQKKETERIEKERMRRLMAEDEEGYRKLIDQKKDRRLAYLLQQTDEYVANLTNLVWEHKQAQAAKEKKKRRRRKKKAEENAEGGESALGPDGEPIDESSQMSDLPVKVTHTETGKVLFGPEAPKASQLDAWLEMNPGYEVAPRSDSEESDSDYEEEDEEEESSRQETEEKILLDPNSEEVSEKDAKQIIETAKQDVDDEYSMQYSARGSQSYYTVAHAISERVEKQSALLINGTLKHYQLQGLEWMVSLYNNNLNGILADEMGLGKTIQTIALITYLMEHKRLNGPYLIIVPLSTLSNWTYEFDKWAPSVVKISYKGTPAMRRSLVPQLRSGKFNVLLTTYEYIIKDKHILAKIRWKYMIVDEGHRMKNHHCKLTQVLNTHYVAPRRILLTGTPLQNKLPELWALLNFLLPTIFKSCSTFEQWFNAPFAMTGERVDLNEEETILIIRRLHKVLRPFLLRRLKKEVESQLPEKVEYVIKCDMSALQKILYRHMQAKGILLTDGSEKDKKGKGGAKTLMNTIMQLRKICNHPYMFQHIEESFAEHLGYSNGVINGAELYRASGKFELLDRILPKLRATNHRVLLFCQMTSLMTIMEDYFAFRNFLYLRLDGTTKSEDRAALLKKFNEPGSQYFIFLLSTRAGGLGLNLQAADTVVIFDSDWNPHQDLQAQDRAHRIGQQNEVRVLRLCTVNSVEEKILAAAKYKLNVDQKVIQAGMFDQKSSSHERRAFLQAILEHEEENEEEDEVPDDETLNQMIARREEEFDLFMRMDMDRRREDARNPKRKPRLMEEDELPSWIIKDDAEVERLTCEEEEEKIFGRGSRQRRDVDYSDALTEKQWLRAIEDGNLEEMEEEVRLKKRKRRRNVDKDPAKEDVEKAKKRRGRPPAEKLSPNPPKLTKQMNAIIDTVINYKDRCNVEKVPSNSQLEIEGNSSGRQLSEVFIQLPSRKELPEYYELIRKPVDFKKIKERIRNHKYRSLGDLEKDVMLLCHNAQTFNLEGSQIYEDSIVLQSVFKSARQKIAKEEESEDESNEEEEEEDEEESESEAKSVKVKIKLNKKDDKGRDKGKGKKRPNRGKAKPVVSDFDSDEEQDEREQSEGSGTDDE

| Compound | BRM Max % Inhibition (BRM) [%] | IC50 (BRM) [µM] | IC50 (BRG-1) [µM] | Emax (BRG-1) [%] |
| --- | --- | --- | --- | --- |
| C[C@@H]1CN(c2cccc(-c3csc(NC(=O)CNC(=O)c4ccc5c(c4)[C@](C)(C#N)CN5C)n3)c2)C[C@H](C)O1 [Compound 369, (S)-3-cyano-N-(2-((4-(3-((cis)-2,6-dimethylmorpholino)phenyl)thiazol-2-yl)amino)-2-oxoethyl)-1,3-dimethylindoline-5-carboxamide] | >95 | < 0.1 | < 0.1 | > 95 |
| C[C@@H]1CN(c2cccc(-c3csc(NC(=O)CNC(=O)c4ccc5c(c4)CCCO5)n3)n2)C[C@H](C)O1 [Compound 370, N-(2-((4-(6-((cis)-2,6-dimethylmorpholino)pyridin-2-yl)thiazol-2-yl)amino)-2-oxoethyl)chromane-6-carboxamide] | >65 | 0.1 to 1 | > 5 | > 65 |
| C[C@@]1(C#N)COCc2ccc(C(=O)NCC(=O)Nc3nc(-c4cccc(C5CCO5)c4)cs3)cc21 (stereo partly drawn) [Compound 371, (R)-4-cyano-4-methyl-N-(2-((4-(3-(oxetan-2-yl)phenyl)thiazol-2-yl)amino)-2-oxoethyl)isochromane-6-carboxamide] | >95 | < 0.1 | 0.1 to 1 | > 95 |
| C[C@@H]1CN(c2cccc(-c3csc(NC(=O)CNC(=O)c4ccc5c(c4)C(C#N)(CO)COC5)n3)c2)C[C@H](C)O1 (stereo partly drawn) [Compound 374, 4-cyano-N-(2-((4-(3-((cis)-2,6-dimethylmorpholino)phenyl)thiazol-2-yl)amino)-2-oxoethyl)-4-(hydroxymethyl)isochromane-6-carboxamide] | >95 | < 0.1 | 0.1 to 1 | > 95 |
| C[C@@H]1CN(c2cccc(-c3csc(NC(=O)CNC(=O)c4ccc5c(c4)C4(CCO4)COC5)n3)n2)C[C@H](C)O1 (stereo partly drawn) [Compound 376, N-(2-((4-(6-((cis)-2,6-dimethylmorpholino)pyridin-2-yl)thiazol-2-yl)amino)-2-oxoethyl)spiro[isochromane-4,2′-oxetane]-6-carboxamide] | >95 | < 0.1 | 0.1 to 1 | > 95 |
| COc1cc(F)cc(-c2csc(NC(=O)CNC(=O)c3ccc4c(c3)[C@](C)(C#N)COC4)n2)c1 [Compound 377, (R)-4-cyano-N-(2-((4-(3-fluoro-5-methoxyphenyl)thiazol-2-yl)amino)-2-oxoethyl)-4-methylisochromane-6-carboxamide] | >95 | < 0.1 | < 0.1 | > 95 |
| CC(=O)N1CC(c2cccc(-c3csc(NC(=O)CNC(=O)c4ccc5c(c4)[C@](C)(C#N)COC5)n3)c2)C1 [Compound 379, (R)-N-(2-((4-(3-(1-acetylazetidin-3-yl)phenyl)thiazol-2-yl)amino)-2-oxoethyl)-4-cyano-4-methylisochromane-6-carboxamide] | >95 | < 0.1 | 0.1 to 1 | > 95 |
| C[C@@H]1CN(c2cccc(-c3csc(NC(=O)CNC(=O)c4ccc5c(c4)C4(CCO5)COC4)n3)n2)C[C@H](C)O1 [Compound 381, N-(2-((4-(6-((cis)-2,6-dimethylmorpholino)pyridin-2-yl)thiazol-2-yl)amino)-2-oxoethyl)spiro[chromane-4,3′-oxetane]-6-carboxamide] | >80 | 0.1 to 1 | > 5 | > 80 |
| Cn1ccc2ccc(-c3csc(NC(=O)CNC(=O)c4ccc5c(c4)C4(CCO5)COC4)n3)cc2c1=O [Compound 382, N-(2-((4-(2-methyl-1-oxo-1,2-dihydroisoquinolin-7-yl)thiazol-2-yl)amino)-2-oxoethyl)spiro[chromane-4,3′-oxetane]-6-carboxamide] | >50 | 0.1 to 1 | > 5 | > 50 |
| C[C@@H]1CN(c2cccc(-c3csc(NC(=O)CNC(=O)c4cc(C(C)(C)C)ncc4F)n3)c2)C[C@H](C)O1 [Compound 383, 2-(tert-butyl)-N-(2-((4-(3-((cis)-2,6-dimethylmorpholino)phenyl)thiazol-2-yl)amino)-2-oxoethyl)-5-fluoroisonicotinamide] | >85 | 0.1 to 1 | > 5 | > 85 |
| C[C@@H]1CN(c2cccc(-c3csc(NC(=O)CNC(=O)c4ccc5c(c4)C(C)(C#N)OCC5)n3)n2)C[C@H](C)O1 (stereo partly drawn) [Compound 384, 1-cyano-N-(2-((4-(6-((cis)-2,6-dimethylmorpholino)pyridin-2-yl)thiazol-2-yl)amino)-2-oxoethyl)-1-methylisochromane-7-carboxamide] | >90 | 0.1 to 1 | 1 to 5 | > 90 |
| C[C@@H]1CN(c2cccc(-c3csc(NC(=O)CNC(=O)c4ccc5c(c4)C(F)(F)COC5)n3)n2)C[C@H](C)O1 [Compound 385, N-(2-((4-(6-((cis)-2,6-dimethylmorpholino)pyridin-2-yl)thiazol-2-yl)amino)-2-oxoethyl)-4,4-difluoroisochromane-6-carboxamide] | >95 | < 0.1 | 0.1 to 1 | > 95 |
| C[C@@]1(C#N)COCc2ccc(C(=O)NCC(=O)Nc3nc(-c4cccc([C@@H]5CC5(F)F)n4)cs3)cc21 [Compound 386, (R)-4-cyano-N-(2-((4-(6-((S)-2,2-difluorocyclopropyl)pyridin-2-yl)thiazol-2-yl)amino)-2-oxoethyl)-4-methylisochromane-6-carboxamide] | >95 | < 0.1 | 0.1 to 1 | > 95 |
| C[C@@]1(C#N)COCc2ccc(C(=O)NCC(=O)Nc3nc(-c4cccc([C@H]5CC5(F)F)n4)cs3)cc21 [Compound 387, (R)-4-cyano-N-(2-((4-(6-((R)-2,2-difluorocyclopropyl)pyridin-2-yl)thiazol-2-yl)amino)-2-oxoethyl)-4-methylisochromane-6-carboxamide] | >95 | < 0.1 | 1 to 5 | > 95 |
| C[C@@]1(C#N)COCc2ccc(C(=O)NCC(=O)Nc3nc(-c4cccc([C@@H]5CC5(F)F)c4)cs3)cc21 [Compound 388, (R)-4-cyano-N-(2-((4-(3-((S)-2,2-difluorocyclopropyl)phenyl)thiazol-2-yl)amino)-2-oxoethyl)-4-methylisochromane-6-carboxamide] | >95 | < 0.1 | < 0.1 | > 95 |
| Cn1ccc2ccc(-c3csc(NC(=O)CNC(=O)c4ccc5c(c4)[C@](C)(F)COC5)n3)cc2c1=O [Compound 389, (S)-4-fluoro-4-methyl-N-(2-((4-(2-methyl-1-oxo-1,2-dihydroisoquinolin-7-yl)thiazol-2-yl)amino)-2-oxoethyl)isochromane-6-carboxamide] | >95 | < 0.1 | < 0.1 | > 95 |
| COC1CN(c2cccc(-c3csc(NC(=O)CNC(=O)c4ccc5c(c4)[C@](C)(C#N)COC5)n3)c2)C1 [Compound 390, (R)-4-cyano-N-(2-((4-(3-(3-methoxyazetidin-1-yl)phenyl)thiazol-2-yl)amino)-2-oxoethyl)-4-methylisochromane-6-carboxamide] | >95 | < 0.1 | < 0.1 | > 95 |
| C[C@@]1(C#N)COCc2ccc(C(=O)NCC(=O)Nc3nc(-c4cccc([C@H]5CC5(F)F)c4)cs3)cc21 [Compound 391, (R)-4-cyano-N-(2-((4-(3-((R)-2,2-difluorocyclopropyl)phenyl)thiazol-2-yl)amino)-2-oxoethyl)-4-methylisochromane-6-carboxamide] | >95 | < 0.1 | 0.1 to 1 | > 95 |
| C[C@@H]1CN(c2cccc(-c3csc(NC(=O)CNC(=O)c4cccc([C@]5(C)C[C@@H](O)C5)c4)n3)c2)C[C@H](C)O1 [Compound 392, N-(2-((4-(3-((cis)-2,6-dimethylmorpholino)phenyl)thiazol-2-yl)amino)-2-oxoethyl)-3-((1r,3r)-3-hydroxy-1-methylcyclobutyl)benzamide] | >90 | 0.1 to 1 | > 5 | > 90 |
| C[C@@H]1CN(c2cccc(-c3csc(NC(=O)CNC(=O)c4cccc([C@]5(C)C[C@H](O)C5)c4)n3)c2)C[C@H](C)O1 [Compound 393, N-(2-((4-(3-((cis)-2,6-dimethylmorpholino)phenyl)thiazol-2-yl)amino)-2-oxoethyl)-3-((1s,3s)-3-hydroxy-1-methylcyclobutyl)benzamide] | >95 | 0.1 to 1 | > 5 | > 95 |
| COc1cccc(-c2csc(NC(=O)CNC(=O)c3ccc4c(c3)C(C)(C#N)CCN4C)n2)c1 (stereo not shown) [Compound 394, 4-cyano-N-(2-((4-(3-methoxyphenyl)thiazol-2-yl)amino)-2-oxoethyl)-1,4-dimethyl-1,2,3,4-tetrahydroquinoline-6-carboxamide] | >80 | 0.1 to 1 | > 5 | > 80 |
| CC(C)N1CCOc2ccc(C(=O)NCC(=O)Nc3nc(-c4cccc(N5C[C@@H](C)O[C@@H](C)C5)n4)cs3)cc21 [Compound 395, N-(2-((4-(6-((cis)-2,6-dimethylmorpholino)pyridin-2-yl)thiazol-2-yl)amino)-2-oxoethyl)-4-isopropyl-3,4-dihydro-2H-benzo[b][1,4]oxazine-6-carboxamide] | >80 | 0.1 to 1 | > 5 | > 80 |
